Data on 2 compounds can be found in paper PMC3758034, “New Insight into the SAR of Pyrimido [4,5-b][1,4] Benzothiazines as 15-lipoxygenase Inhibitors” (Iranian Journal of Basic Medical Sciences, 2013).

Molecules are shown by their SMILES.

In this experiment the target is soybean 15-lipoxygenase (SLO) (Glycine max, UniProt P08170). The experiment can be described thus: SLO screening assay (spectrophotometric MBTH-DMAB peroxide formation method, 598 nm). It is filed as biochemical. As to conditions: pH = 8.3 versus pH = 7.0. How it is done: Linoleic acid and two assay solutions (A and B) were prepared in advance. Solution A was 50 mM DMAB in a l00 mM phosphate buffer (pH 7.0). Solution B was a mixture of l0 mM MBTH (3 mL), hemoglobin (5 mg/mL, 3 mL) in 50 mM phosphate buffer at pH 5.0 (25 mL). A linoleic acid solution was prepared by mixing 5 mg of linoleic acid with 0.5 mL ethanol and then diluting with KOH 100 mM to a final volume of 5 mL. […] A control test was done with the same volume of ethanol. After the pre-incubation, linoleic acid solution (50 µL) was added to start the peroxidation reaction, and, 7 min later, solution A (270 µL) and then solution B (130 µL) was added to start the color formation. 5 min later, 200 µL of a 2% SDS solution was added to terminate the reaction. The absorbance at 598 nm was compared with control test. The IC50 results are outlined in Table 1.
It is interesting to note that the aforementioned amino acids with the exception of Val769 and Phe576 are conserved ([18], [19]). […] The inhibitory activity of compounds 1a-f, 2a-f towards SLO enzyme was determined by measuring the amount of peroxide formation. In this method, with the help of a spectrophotometer and by using a mixture of MBTH (3-methyl-2-benzothiazolonhydrazone) and DMAB (3-dimethylaminobenzoic acid) indicators in the presence of hemoglobin at the wavelength of 598 nm, the peroxide concentration was determined ([16]).

soybean 15-lipoxygenase (SLO), sequence (P08170 whole entry): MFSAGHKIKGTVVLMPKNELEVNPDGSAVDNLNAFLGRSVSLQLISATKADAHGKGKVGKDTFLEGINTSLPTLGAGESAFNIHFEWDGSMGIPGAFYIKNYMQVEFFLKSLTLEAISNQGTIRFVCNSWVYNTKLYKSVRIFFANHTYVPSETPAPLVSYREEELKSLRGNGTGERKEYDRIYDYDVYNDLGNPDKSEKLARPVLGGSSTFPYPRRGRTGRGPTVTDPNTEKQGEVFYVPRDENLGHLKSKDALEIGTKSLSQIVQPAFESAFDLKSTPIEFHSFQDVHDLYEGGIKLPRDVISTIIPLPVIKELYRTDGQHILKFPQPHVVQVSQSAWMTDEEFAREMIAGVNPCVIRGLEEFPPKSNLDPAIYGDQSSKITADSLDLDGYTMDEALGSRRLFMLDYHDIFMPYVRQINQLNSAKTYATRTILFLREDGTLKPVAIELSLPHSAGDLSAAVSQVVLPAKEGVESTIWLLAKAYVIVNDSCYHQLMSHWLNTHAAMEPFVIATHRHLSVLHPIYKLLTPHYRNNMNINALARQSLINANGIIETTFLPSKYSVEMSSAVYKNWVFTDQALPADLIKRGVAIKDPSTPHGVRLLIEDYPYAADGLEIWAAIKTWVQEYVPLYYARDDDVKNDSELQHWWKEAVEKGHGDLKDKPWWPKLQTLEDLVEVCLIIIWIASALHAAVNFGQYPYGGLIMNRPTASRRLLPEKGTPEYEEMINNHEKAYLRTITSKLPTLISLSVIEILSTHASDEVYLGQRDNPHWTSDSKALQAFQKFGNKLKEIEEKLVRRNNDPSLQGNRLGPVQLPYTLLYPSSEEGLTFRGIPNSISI

With `Cc1nc(N2CCC(C)CC2)nc2c1Nc1ccccc1S2` [2c], the “IC50 at higher pH” value is reported as “nearly unchanged”. In the case of `CC1CCN(c2ncc3c(n2)Sc2ccccc2N3)CC1` [1c], the “IC50 at higher pH” value is given as “nearly unchanged”.
